Assay results from US12441732B2, “Potassium salt crystal form B of phosphodiesterase type 5 inhibitor, and preparation method and use therefor” (Guangzhou Huazhen Pharmaceutical Co., Ltd, priority 2019, dated 2025).

Experiments:
[1] = Dynamic vapor sorption (DVS) hygroscopicity test; type: physicochemical
Experimental: Dynamic vapor adsorption (DVS) experiments were performed at 25° C. on a DVS Intrinsic instrument from SMS (Surface Measurement Systems) to test hygroscopicity of the potassium salt anhydrous crystal form B prepared in Embodiment 1. The test sample was first dried at 0% relative humidity (RH) to remove the adsorbed solvent or water, and then the test was started with a target RH of 0-95%.

[2] = Pharmacokinetic experiment in rats after gavage; type: in vivo; details: male SD rats, gavage 2 mg·kg^−1
Experimental: After 6 healthy male SD rats were fasted and drank water freely for 12 h, the rats was administered by gavage with the potassium salt crystal form B prepared in Embodiment 1 at 2 mg·kg^−1, and blood was taken from the Bulbus oculi venous plexus at 0.2 h, 0.5 h, 1 h, 1.5 h, 2 h, 4 h, 6 h and 8 h after administration. A solution of acetonitrile:water (1:1) was added, and centrifuging was conducted to take the supernatant for chromatographic analysis, at conditions: a chromatographic column: Thermo Fisher Hypersil gold column (3 μm, 20 mm×2.1 mm), an injection volume of 10 μL, a flow rate of 0.3 mL/min, a column temperature of 40° C., a mobile phase of water (1% formic acid) and methanol, gradient elution: methanol 10% (0 min); 10% (1 min); 90% (4 min); 90% (8 min); 10% (9 min), and with mass spectrometry conditions: multiple reaction monitoring (MRM), electrospray ionization (ESI), retention time (Dwell Time) of 200 ms, detection ion m/z 448.0-347.8. The data of blood drug concentration was analyzed with Winnolin6.3 software to obtain the pharmacokinetic parameters, thereby forming the mean blood drug concentration-time curve, as shown in FIG. 19.

UIRI model mice = assay: Unilateral renal ischemia-reperfusion mouse model (UIRI model) of renal fibrosis; type: in vivo, BALB/c mice; details: 5 mg·kg^−1·d^−1 gavage, 10 days
Description: Fifteen male BALB/c mice were randomly divided into: a Sham group (a sham-operation group) including 5 mice, and a surgical modeling group including 10 mice. Surgical method: mice were anesthetized and incised on the left side of the abdomen to expose the kidney, and the renal pedicle was bluntly dissected. In the sham-operation group, the renal pedicle was only exposed without clamping; in the modeling group, the left kidney renal pedicle was clamped with a non-invasive miniature arterial clamp for 30 min, and the mice were placed on a thermostat plate at 37° C. to maintain a constant body temperature during the clamping period, and the surgical incision was covered with saline-impregnated gauze to prevent dehydration of the renal tissue. The arterial clamp was removed after 30 min, and it was observed that the kidney changed gradually from purple-black to bright red within 1 min, indicating successful blood reperfusion. The kidney was returned to its original position and the wound was sutured. The mice in the modeling group were randomly divided into 2 groups: a UIRI group (a model group) and a treatment group of the potassium salt crystal form B of WYQ (5 mg/kg), 5 mice in each group.
The first gavage administration was started 2 hours after the operation.
(2) treatment group of the potassium salt crystal form B of WYQ: the potassium salt crystal form B of WYQ was diluted into a 1 mg/ml solution with normal saline and administered by gavage at the dose of 5 mg·kg^−1·d^−1; and
administered once a day for consecutive 10 days.
On the 10th after operation, mice were anesthetized in the same way, the right dorsum was incised to expose the right kidney, and the renal pedicle was ligated before removing the right kidney. The mice in the sham-operation group were only stripped of the perirenal membrane without removing the right kidney. On the 11th after operation, all the mice were sacrificed, the abdominal cavity was opened, and the left kidney tissues of the mice were peeled off, caring to maintain the integrity of the kidney. After the kidney is taken out, the kidney is quickly transferred to pre-chilled PBS, and the kidney is cut for different tests. The kidney is divided into four parts with a scalpel, wherein the upper and lower ventral poles of the kidney were put into liquid nitrogen for extraction of protein and mRNA, and detection of changes in the expression amount of fibrosis-related factors proteins and genes. After 2 hours, the kidney tissue was transferred and stored in the refrigerator at −80° C. The dorsal side of the kidney was fixed in 4% paraformaldehyde for making paraffin sections. The morphological changes of the kidney tissue were observed by HE staining and Masson staining, and the changes of the expression of fibrosis marker proteins in the kidney tissues were observed by immunohistochemistry.

[3] = test system: rats with isoproterenol-induced myocardial hypertrophy; assay: Isoproterenol-induced myocardial hypertrophy in rats; type: in vivo, SD rats; details: Iso rats, 2 mg·kg^−1·d^−1 gavage, 7 days
Experimental: SD rats were randomly divided into 3 groups, 10 rats/group: a normal control group (CON); an isoproterenol-induced myocardial hypertrophy model group (Iso); an Iso+the potassium salt crystal form B of WYQ treatment group (hereafter referred to as a treatment group).
Isoproterenol was prepared into a 4 mg/ml medicinal solution with double-distilled water, which was ready to be used. The normal control group was injected with normal saline (5 mg/kg) subperitoneally, and the rest of the groups were injected with isoproterenol (5 mg/kg) subperitoneally once a day for 7 consecutive days.
Treatment group: the potassium salt crystal form B of WYQ was prepared into a 0.4 mg/ml medicinal solution with normal saline (ready to use) and administered by gavage at a dose of 2 mg·kg^−1·d^−1; and
the day of injection was the starting date of the experiment, and the administration was started 2 hours after the modeling, once a day for 7 consecutive days.
After 7 days from the starting date of the experiment, the left ventricle was intubated retrogradely through the right common carotid artery, and the hemodynamic indexes of each group of rats were collected on the RM-6240E polygraph, including the left ventricular pressure (LVP) and the rate of ventricular pressure change (dp/dt).
One week after the starting date of the experiment, the animals were anesthetized and hemodynamically tested (RM-6240E polygraph). The animals were sacrificed after pressure measurement. The heart tissues were immediately dissected and rinsed in frozen normal saline to remove blood. The heart was weighed quickly, and the left and right atria are cut along the atrio-ventricular junction with ophthalmic scissors. The left ventricle was separated, and absorbed water with filter paper, weighed, and put into liquid nitrogen for extraction of protein and mRNA to detect changes in the expression of hypertrophy-related factor genes. After 2 hours, the left ventricle tissue was transferred to a refrigerator at −80° C. for freezing and storage. After completing the above operations, the leg skin and muscles of the rats were cut with surgical scissors to fully expose the tibia, and the length of the tibia was measured. The myocardial hypertrophy index of rats was expressed by a heart-tibia length (HW-Tibia).

CCCCOC(=O)[N-]S(=O)(=O)c1cccc(-c2nc3c(CCC)nn(C)c3c(=O)[nH]2)c1.[K+] [potassium salt crystal form B]
crystal form before and after the DVS test (XRPD) ([1]; DVS 0-95% RH, 25° C.): did not change
change in mass (water adsorption amount) ([1]; DVS, 25° C./80% RH): 0.6%
hygroscopicity ([1]; DVS, 25° C./80% RH): slight hygroscopicity
time at which the peak drug concentration was reached [2]: 0.63 ± 0.12 h
AUC(0-t) ([2]; rat, blood, po, read-out: AUC(0-4) within 8 h after administration): 639 ± 72.4 ng·h/mL
Cmax ([2]; rat, blood, po, read-out: maximum drug concentration (Cmax)): 334 ± 23.7 ng/mL
half-life ([2]; rat, blood, po, read-out: oral half-life (t112) (converted)): 2.3 ± 0.27 h
AUC(0-inf) ([2]; rat, blood, po, read-out: total area under the mean blood drug concentration-time curve AUC0-∞): 650 ± 70.8 ng·h/mL
Collagen I protein expression in kidney tissue (Western Blot) vs UIRI model (UIRI model mice): significantly reduced
FN1 protein expression in kidney tissue (Western Blot) vs UIRI model (UIRI model mice): significantly reduced
FN1 protein expression level in renal fibrotic lesions (immunohistochemistry) (UIRI model mice): significantly reduced
PAI-1 protein expression in kidney tissue (Western Blot) vs UIRI model (UIRI model mice): significantly reduced
α-SMA protein expression in kidney tissue (Western Blot) vs UIRI model (UIRI model mice): significantly reduced
α-SMA protein expression level in renal fibrotic lesions (immunohistochemistry) (UIRI model mice): significantly reduced
extracellular matrix deposition in the kidneys (UIRI model mice; HE/Masson staining): decreased
inflammatory cell infiltration in the kidneys (UIRI model mice; HE/Masson staining): significantly reduced
BNP gene expression in heart tissue vs model group [3]: significantly decreased
HW-Tibia ratio vs model group [3]: significantly reduced
Max dp/dt vs model group [3]: significantly higher
Min dp/dt vs model group [3]: significantly higher
expression of ANP gene in left heart tissue vs model group [3]: significantly decreased
expression of ANP protein in left heart tissue vs model group [3]: significantly decreased
left ventricle-tibia length ratio vs model group [3]: significantly reduced
left ventricular pressure (LVP) vs model group [3]: significantly higher
